target: human Nav1.7 (Homo sapiens (Human), UniProt Q15858); assay: Nav 1.7 in vitro PatchXpress (PX) assay; type: cell-based; conditions: not given
Sequence (Q15858 whole entry): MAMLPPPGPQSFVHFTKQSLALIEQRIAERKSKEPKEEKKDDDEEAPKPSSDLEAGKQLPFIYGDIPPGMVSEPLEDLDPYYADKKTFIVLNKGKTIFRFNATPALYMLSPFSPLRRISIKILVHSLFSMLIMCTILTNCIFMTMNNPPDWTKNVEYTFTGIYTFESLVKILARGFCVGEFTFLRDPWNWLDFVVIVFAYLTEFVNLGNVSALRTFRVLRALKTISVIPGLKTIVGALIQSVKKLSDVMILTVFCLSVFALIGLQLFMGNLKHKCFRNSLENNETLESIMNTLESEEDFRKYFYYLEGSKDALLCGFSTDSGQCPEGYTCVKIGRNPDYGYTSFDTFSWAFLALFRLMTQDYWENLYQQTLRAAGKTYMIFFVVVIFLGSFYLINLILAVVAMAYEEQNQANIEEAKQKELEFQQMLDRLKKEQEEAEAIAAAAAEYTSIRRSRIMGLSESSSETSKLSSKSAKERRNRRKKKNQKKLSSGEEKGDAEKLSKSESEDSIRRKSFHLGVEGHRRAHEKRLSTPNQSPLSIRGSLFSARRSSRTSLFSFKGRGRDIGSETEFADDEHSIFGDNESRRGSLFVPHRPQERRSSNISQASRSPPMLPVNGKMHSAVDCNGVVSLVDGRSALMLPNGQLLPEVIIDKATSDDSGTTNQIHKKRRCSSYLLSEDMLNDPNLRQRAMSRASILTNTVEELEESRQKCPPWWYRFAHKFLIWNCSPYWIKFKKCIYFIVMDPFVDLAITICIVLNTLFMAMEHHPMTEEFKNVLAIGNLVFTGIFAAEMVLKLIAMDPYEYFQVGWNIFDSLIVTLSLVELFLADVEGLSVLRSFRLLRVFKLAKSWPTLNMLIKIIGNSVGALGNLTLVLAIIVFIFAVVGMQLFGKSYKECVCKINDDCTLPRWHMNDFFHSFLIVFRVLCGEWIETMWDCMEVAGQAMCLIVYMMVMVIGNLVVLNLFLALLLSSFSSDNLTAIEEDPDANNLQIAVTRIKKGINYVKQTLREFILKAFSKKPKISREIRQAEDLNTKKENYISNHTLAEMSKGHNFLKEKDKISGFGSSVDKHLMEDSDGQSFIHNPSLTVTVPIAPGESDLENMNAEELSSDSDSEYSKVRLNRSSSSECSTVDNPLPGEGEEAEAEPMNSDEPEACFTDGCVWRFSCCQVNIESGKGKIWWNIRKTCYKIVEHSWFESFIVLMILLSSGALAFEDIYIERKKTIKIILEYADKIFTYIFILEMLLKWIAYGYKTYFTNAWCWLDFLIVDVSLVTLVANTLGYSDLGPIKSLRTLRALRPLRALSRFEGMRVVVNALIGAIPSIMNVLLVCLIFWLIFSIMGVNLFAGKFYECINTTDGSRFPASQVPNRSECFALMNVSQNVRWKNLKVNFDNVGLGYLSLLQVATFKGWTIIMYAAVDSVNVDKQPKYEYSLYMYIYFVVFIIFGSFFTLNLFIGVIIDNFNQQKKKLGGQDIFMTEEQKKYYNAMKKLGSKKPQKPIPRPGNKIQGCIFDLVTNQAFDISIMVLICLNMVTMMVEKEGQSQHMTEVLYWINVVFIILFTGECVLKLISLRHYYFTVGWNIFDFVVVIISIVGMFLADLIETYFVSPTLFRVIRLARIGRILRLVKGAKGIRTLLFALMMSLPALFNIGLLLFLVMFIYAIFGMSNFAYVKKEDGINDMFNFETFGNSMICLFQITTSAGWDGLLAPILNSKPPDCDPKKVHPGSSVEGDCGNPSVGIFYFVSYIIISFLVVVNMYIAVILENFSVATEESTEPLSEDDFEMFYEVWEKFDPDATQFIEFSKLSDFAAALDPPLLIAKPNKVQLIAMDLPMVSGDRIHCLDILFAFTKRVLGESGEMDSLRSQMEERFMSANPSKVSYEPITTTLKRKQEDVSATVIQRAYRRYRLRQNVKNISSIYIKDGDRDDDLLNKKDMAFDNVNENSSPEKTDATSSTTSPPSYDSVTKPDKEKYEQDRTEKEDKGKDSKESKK

| Compound | IC50 [nM] |
| --- | --- |
| COc1ccc(Cl)c(Oc2ncc(-c3ccc(C(=O)NS(C)(=O)=O)cc3OC)cc2Cl)c1 [Example 369, 4-(5-chloro-6-(2-chloro-5-methoxyphenoxy)-3-pyridinyl)-3-methoxy-N-(methylsulfonyl)benzamide] | 90.5 |
| CS(=O)(=O)NC(=O)c1ccc(-c2cnc(Oc3cccc4ccccc34)c(Cl)c2)c(OC2COC2)c1 [Example 419, 4-(5-chloro-6-(1-naphthalenyloxy)-3-pyridinyl)-N-(methylsulfonyl)-3-(3-oxetanyloxy)benzamide] | 98 |
| COc1cc(C(=O)NS(C)(=O)=O)ccc1-c1cnc(Oc2cc(C)c(Cl)c(C)c2)c(Cl)c1 [Example 364, 4-(5-chloro-6-(4-chloro-3,5-dimethylphenoxy)-3-pyridinyl)-3-methoxy-N-(methylsulfonyl)benzamide] | 64.3 |
| CS(=O)(=O)NC(=O)c1ccc(-c2cnc(Oc3ccc4ccccc4c3)c(Cl)c2)c(OC(F)F)c1 [Example 446, 4-(5-chloro-6-(2-naphthalenyloxy)-3-pyridinyl)-3-(difluoromethoxy)-N-(methylsulfonyl)benzamide] | 74.8 |
| COc1cc(C(=O)NS(C)(=O)=O)ccc1-c1cnc(Oc2ccc(F)cc2C)c(Cl)c1 [Example 361, 4-(5-chloro-6-(4-fluoro-2-methylphenoxy)-3-pyridinyl)-3-methoxy-N-(methylsulfonyl)benzamide] | 96.6 |
| Cc1c(Cl)cccc1Oc1ncc(-c2ccc(C(=O)NS(C)(=O)=O)cc2OC(F)F)cc1Cl [Example 586, 4-(5-chloro-6-(3-chloro-2-methylphenoxy)-3-pyridinyl)-3-(difluoromethoxy)-N-(methylsulfonyl)benzamide] | 34.6 |
| COc1cc(C(=O)NS(C)(=O)=O)ccc1-c1cnc(Oc2ccc(Cl)cc2Cl)c(C#N)c1 [Example 691, 4-(5-cyano-6-(2,4-dichlorophenoxy)-3-pyridinyl)-3-methoxy-N-(methylsulfonyl)benzamide] | 83.8 |
| COc1cc(C(=O)NS(C)(=O)=O)ccc1-c1cnc(Oc2c(C)cc(Cl)cc2Cl)c(Cl)c1 [Example 578, 4-(5-Chloro-6-(2,4-Dichloro-6-Methylphenoxy)-Pyridin-3-yl)-3-Methoxy-N-(Methylsulfonyl)Benzamide] | 29.6 |
| CS(=O)(=O)NC(=O)c1cc(F)c(-c2cnc(Oc3c(Cl)cc(F)cc3Cl)c(Cl)c2)cc1F [Example 572, 4-(5-chloro-6-(2,6-dichloro-4-fluorophenoxy)-3-pyridinyl)-2,5-difluoro-N-(methylsulfonyl)benzamide] | 57.6 |
| COc1cc(C(=O)NS(C)(=O)=O)ccc1-c1cnc(Oc2cccc(Cl)c2C)c(C#N)c1 [Example 690, 4-(6-(3-chloro-2-methylphenoxy)-5-cyano-3-pyridinyl)-3-methoxy-N-(methylsulfonyl)benzamide] | 46.9 |
| COc1cc(C(=O)NS(C)(=O)=O)ccc1-c1cnc(Oc2c(C)cccc2Cl)c(Cl)c1 [Example 327, 4-(5-chloro-6-(2-chloro-6-methylphenoxy)-3-pyridinyl)-3-methoxy-N-(methylsulfonyl)benzamide] | 82.3 |
| CS(=O)(=O)NC(=O)c1cc(Cl)c(-c2cnc(OCC3CCCC3)c(Cl)c2)cc1F [Example 600, 5-chloro-4-(5-chloro-6-(cyclopentylmethoxy)-3-pyridinyl)-2-fluoro-N-(methylsulfonyl)benzamide] | 91.9 |
| Cc1cc(Oc2ncc(-c3ccc(C(=O)NS(C)(=O)=O)cc3OC3COC3)cc2Cl)ccc1Cl [Example 413, 4-(5-chloro-6-(4-chloro-3-methylphenoxy)-3-pyridinyl)-N-(methylsulfonyl)-3-(3-oxetanyloxy)benzamide] | 46.1 |
| C[C@@H](Oc1ncc(-c2cc(F)c(C(=O)NS(C)(=O)=O)cc2F)cc1Cl)c1ccc(F)cc1F [Example 574, 4-(5-chloro-6-((1R)-1-(2,4-difluorophenyl)ethoxy)-3-pyridinyl)-2,5-difluoro-N-(methylsulfonyl)benzamide] | 88.8 |
| COc1cc(C(=O)NS(C)(=O)=O)ccc1-c1cnc(Oc2c(Cl)cc(C)cc2Cl)c(C#N)c1 [Example 693, 4-(5-cyano-6-(2,6-dichloro-4-methylphenoxy)-3-pyridinyl)-3-methoxy-N-(methylsulfonyl)benzamide] | 22.1 |
| Cc1ccc(Oc2ncc(-c3ccc(C(=O)NS(C)(=O)=O)cc3OC(F)F)cc2Cl)cc1C [Example 459, 4-(5-chloro-6-(3,4-dimethylphenoxy)-3-pyridinyl)-3-(difluoromethoxy)-N-(methylsulfonyl)benzamide] | 95 |
| Cc1cccc(Cl)c1Oc1ncc(-c2ccc(C(=O)NS(C)(=O)=O)cc2OC(F)F)cc1Cl [Example 468, 4-(5-chloro-6-(2-chloro-6-methylphenoxy)-3-pyridinyl)-3-(difluoromethoxy)-N-(methylsulfonyl)benzamide] | 53.5 |

same assay, conditions: in-vitro Nav 1.7 PX data

| Compound | IC50 [nM] |
| --- | --- |
| COc1cc(C(=O)NS(C)(=O)=O)c(F)cc1-c1cnc(Oc2cc(C)ccc2Cl)c(Cl)c1 [Example 752, 4-(5-chloro-6-(2-chloro-5-methylphenoxy)-3-pyridinyl)-2-fluoro-5-methoxy-N-(methylsulfonyl)benzamide] | 42.1 |
| COc1cc(C(=O)NS(C)(=O)=O)c(F)cc1-c1cnc(O[C@@H]2CC[C@H]2C)c(Cl)c1 [Example 733, 4-(5-chloro-6-(((1R,2R)-2-methylcyclobutyl)oxy)-3-pyridinyl)-2-fluoro-5-methoxy-N-(methylsulfonyl)benzamide, 4-(5-chloro-6-(((1S,2S)-2-methylcyclobutyl)oxy)-3-pyridinyl)-2-fluoro-5-methoxy-N-(methylsulfonyl)benzamide] | 220 |
| COc1cc(C(=O)NS(C)(=O)=O)c(F)cc1-c1cnc(Oc2c(Cl)ccc(C)c2F)c(Cl)c1 [Example 762, 4-(5-chloro-6-(6-chloro-2-fluoro-3-methylphenoxy)-3-pyridinyl)-2-fluoro-5-methoxy-N-(methylsulfonyl)benzamide] | 75.2 |
| COc1cc(C(=O)NS(C)(=O)=O)c(F)cc1-c1cnc(Oc2cc(F)cc(F)c2)c(Cl)c1 [Example 740, 4-(5-chloro-6-(3,5-difluorophenoxy)-3-pyridinyl)-2-fluoro-5-methoxy-N-(methylsulfonyl)benzamide] | 87 |
| COc1cc(C(=O)NS(C)(=O)=O)c(F)cc1-c1cnc(Oc2ccc(C)c(F)c2F)c(Cl)c1 [Example 746, 4-(5-chloro-6-(2,3-difluoro-4-methylphenoxy)-3-pyridinyl)-2-fluoro-5-methoxy-N-(methylsulfonyl)benzamide] | 62.8 |
| CS(=O)(=O)NC(=O)c1cc(OC(F)F)c(-c2cnc(OC3CCC3)c(Cl)c2)cc1F [Example 781, 4-(5-chloro-6-(cyclobutyloxy)-3-pyridinyl)-5-(difluoromethoxy)-2-fluoro-N-(methylsulfonyl)benzamide] | 145 |
| COc1cc(C(=O)NS(C)(=O)=O)c(F)cc1-c1cnc(Oc2cc(F)ccc2C)c(Cl)c1 [Example 743, 4-(5-chloro-6-(5-fluoro-2-methylphenoxy)-3-pyridinyl)-2-fluoro-5-methoxy-N-(methylsulfonyl)benzamide] | 96.2 |
| COc1cc(C(=O)NS(C)(=O)=O)c(F)cc1-c1cnc(Oc2cccc(Cl)c2F)c(Cl)c1 [Example 745, 4-(5-chloro-6-(3-chloro-2-fluorophenoxy)-3-pyridinyl)-2-fluoro-5-methoxy-N-(methylsulfonyl)benzamide] | 72.5 |

— patent US9663508B2, “Biaryl acyl-sulfonamide compounds as sodium channel inhibitors” (AMGEN INC., priority 2013, dated 2017)
